From the supplement of paper PMC10307832

Tests used:
Assay in all cases: relative viability (nuclei count vs DMSO), 5 days (fraction); higher = more cells survive
[1] = compound: C1COCCN1C2=NC(=NC3=C2OC4=C3C=CC=N4)C5=CC(=CC=C5)NC(=O)C6=CN=C(C=C6)N + Cc1nc(NC(=O)N2CCC[C@H]2C(N)=O)sc1-c1ccnc(C(C)(C)C(F)(F)F)c1 [Alpelisib] (partner 2 µM)
Summary of the method: (§1)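 Medians of duplicate plates are given as relative viability. That measure is the nuclei count in treated wells divided by the count in vehicle wells. Counts were taken on 4× images of lung cancer cell lines in 1536-well plates, 5 days after pin-tool dosing the day after seeding with one drug alone or a fixed anchor-drug dose plus five library-drug doses (not always all listed) in √10 steps.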

[2] = compound: C1COCCN1C2=NC(=NC3=C2OC4=C3C=CC=N4)C5=CC(=CC=C5)NC(=O)C6=CN=C(C=C6)N + O=C(c1cc(Cc2n[nH]c(=O)c3ccccc23)ccc1F)N1CCN(C(=O)C2CC2)CC1 [Olaparib] (partner 8 µM)
Summary of the method: as §1

[3] = compound: CN1CCC(CNc2ccc3ncc(-c4cccc(OC(F)(F)F)c4)n3n2)CC1 [SGI-1776] + CC(=O)Nc1cccc(-n2c(=O)n(C3CC3)c(=O)c3c(Nc4ccc(I)cc4F)n(C)c(=O)c(C)c32)c1 [Trametinib] (partner 0.02 µM)
Summary of the method: as §1

[4] = compound: CN1CCC(CNc2ccc3ncc(-c4cccc(OC(F)(F)F)c4)n3n2)CC1 [SGI-1776] + CS(=O)(=O)CCNCc1ccc(-c2ccc3ncnc(Nc4ccc(OCc5cccc(F)c5)c(Cl)c4)c3c2)o1 [Lapatinib] (partner 2 µM)
Summary of the method: as §1

Row | Cell Line | relative viability ([1]; first compound 0.02 µM) | relative viability ([1]; first compound 0.06325 µM) | relative viability ([1]; first compound 0.2 µM) | relative viability ([1]; first compound 0.6325 µM) | relative viability ([1]; first compound 2 µM) | relative viability ([2]; first compound 0.02 µM) | relative viability ([2]; first compound 0.06325 µM) | relative viability ([2]; first compound 0.2 µM) | relative viability ([2]; first compound 0.6325 µM) | relative viability ([2]; first compound 2 µM) | relative viability ([3]; first compound 0.08 µM) | relative viability ([3]; first compound 0.8 µM) | relative viability ([3]; first compound 2.53 µM) | relative viability ([3]; first compound 8 µM) | relative viability ([4]; first compound 0.08 µM) | relative viability ([4]; first compound 0.8 µM) | relative viability ([4]; first compound 2.53 µM) | relative viability ([4]; first compound 8 µM)
1 | NCI-H23 | 0.661 | 0.822 | 0.66 | 0.772 | 0.491 | 0.417 | 0.314 | 0.281 | 0.3 | 0.226 | 0.328 | 0.29 | 0.372 | 0.304 | 1.21 | 0.984 | 0.917 | 1.17
2 | NCI-H322M | 0.81 | 0.773 | 0.768 | 0.638 | 0.665 | 0.793 | 0.77 | 0.685 | 0.943 | 0.586 | 0.524 | 0.506 | 0.485 | 0.487 | 0.56 | 0.603 | 0.539 | 0.569
3 | NCI-H358 | 0.928 | 0.925 | 0.783 | 0.943 | 0.486 | 0.7 | 0.662 | 0.552 | 0.579 | 0.372 | 0.14 | 0.146 | 0.128 | 0.123 | 0.434 | 0.469 | 0.352 | 0.292
4 | NCI-H460 | 0.393 | 0.5 | 0.395 | 0.349 | 0.0947 | 0.578 | 0.537 | 0.376 | 0.413 | 0.182 | 0.127 | 0.162 | 0.208 | 0.154 | 1.16 | 0.978 | 1.13 | 0.863
5 | NCI-H520 | 0.914 | 0.923 | 0.971 | 1.02 | 0.406 | 0.383 | 0.352 | 0.332 | 0.328 | 0.292 | 0.773 | 0.816 | 0.686 | 0.544 | 1.05 | 0.91 | 0.756 | 0.628
6 | NCI-H596 | 0.497 | 0.51 | 0.691 | 0.51 | 0.394 | 0.589 | 0.668 | 0.601 | 0.747 | 0.621 | 0.797 | 0.733 | 0.782 | 0.678 | 1.08 | 1.06 | 0.906 | 0.825
7 | NCI-H647 | 1.21 | 1.33 | 0.996 | 1.21 | 0.356 | 0.684 | 0.69 | 0.573 | 0.606 | 0.256 | 0.621 | 0.441 | 0.56 | 0.323 | 1.17 | 0.915 | 1.01 | 0.601
8 | NCI-H650 | 1.07 | 1.12 | 1.06 | 1.04 | 0.824 | 0.403 | 0.405 | 0.379 | 0.371 | 0.408 | 1.09 | 1.01 | 0.965 | 0.869 | 0.99 | 0.955 | 0.747 | 0.795
9 | NCI-H661 | 0.703 | 0.698 | 0.664 | 0.531 | 0.728 | 0.789 | 0.832 | 0.717 | 0.876 | 0.426 | 0.596 | 0.534 | 0.525 | 0.466 | 0.509 | 0.533 | 0.646 | 0.439
10 | NCI-H727 | 0.472 | 0.418 | 0.51 | 0.693 | 0.341 | 0.723 | 0.802 | 0.746 | 0.605 | 0.606 | 0.454 | 0.38 | 0.391 | 0.372 | 0.933 | 1.1 | 0.826 | 0.793
11 | NCI-H838 | 1.12 | 0.945 | 0.923 | 0.968 | 0.524 | 0.86 | 0.812 | 0.743 | 0.741 | 0.353 | 0.519 | 0.534 | 0.414 | 0.385 | 0.96 | 1.22 | 0.942 | 0.564
12 | NCI-H1355 | 0.833 | 0.933 | 0.858 | 0.747 | 0.759 | 0.736 | 0.886 | 0.781 | 0.757 | 0.572 | 0.444 | 0.408 | 0.408 | 0.41 | 0.915 | 0.989 | 1.01 | 0.799
13 | NCI-H1395 | 1.03 | 1.03 | 0.998 | 1.45 | 0.89 | 0.473 | 0.427 | 0.422 | 0.461 | 0.377 | 1.16 | 0.984 | 0.951 | 0.887 | 1.16 | 1.04 | 1.07 | 0.781
14 | NCI-H1437 | 0.952 | 1.09 | 0.788 | 0.962 | 0.423 | 0.645 | 0.682 | 0.613 | 0.681 | 0.239 | 0.565 | 0.524 | 0.361 | 0.301 | 0.81 | 0.918 | 0.806 | 0.664
15 | NCI-H1651 | 0.904 | 0.915 | 0.899 | 0.897 | 0.443 | 0.177 | 0.18 | 0.195 | 0.171 | 0.161 | 0.806 | 0.852 | 0.843 | 0.746 | 0.822 | 0.871 | 0.76 | 0.709
16 | NCI-H1666 | 1.02 | 0.906 | 0.794 | 0.775 | 0.549 | 0.757 | 0.74 | 0.729 | 0.804 | 0.755 | 0.95 | 0.846 | 0.935 | 0.842 | 0.645 | 0.765 | 0.581 | 0.35
17 | NCI-H1734 | 0.722 | 0.684 | 0.616 | 0.688 | 0.598 | 0.645 | 0.646 | 0.611 | 0.564 | 0.496 | 0.686 | 0.742 | 0.786 | 0.603 | 1.13 | 1.05 | 1.11 | 0.938
